Test results taken from patent US11572590B2, “Methods for evaluating tumor cell spheroids using 3D microfluidic cell culture device” (Dana-Farber Cancer Institute, Inc., priority 2017, dated 2023).
Read-outs that look alike come from different tables or passages of the source.

Columns and labels:
Assay in all cases: SelectScreen Kinase Profiling, single point inhibition and IC50 for off-target kinases
Type in all cases: biochemical
off-target kinases [1] = target: off-target kinases (Homo sapiens, UniProt P53671); conditions: LIMK2, LanthaScreen Binding
off-target kinases [2] = target: T1, off-target kinases (Homo sapiens, UniProt Q04771, R206H); conditions: ACVR1 (ALK2) R206H, LanthaScreen Binding
T1 sequence (Q04771 21-509 R206H): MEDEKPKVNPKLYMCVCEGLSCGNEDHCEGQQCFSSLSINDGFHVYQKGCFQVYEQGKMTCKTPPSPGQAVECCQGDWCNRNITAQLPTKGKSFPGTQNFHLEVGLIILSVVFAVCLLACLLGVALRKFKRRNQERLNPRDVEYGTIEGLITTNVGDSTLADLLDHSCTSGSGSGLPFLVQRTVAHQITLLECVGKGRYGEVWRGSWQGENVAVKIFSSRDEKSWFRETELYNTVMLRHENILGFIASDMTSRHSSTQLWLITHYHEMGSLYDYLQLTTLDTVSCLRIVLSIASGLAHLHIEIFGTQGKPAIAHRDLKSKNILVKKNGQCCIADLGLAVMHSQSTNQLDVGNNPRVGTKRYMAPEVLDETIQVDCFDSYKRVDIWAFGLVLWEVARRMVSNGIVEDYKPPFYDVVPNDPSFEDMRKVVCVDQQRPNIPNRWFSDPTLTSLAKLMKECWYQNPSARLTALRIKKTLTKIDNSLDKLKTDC

off-target kinases [3] = target: off-target kinases (Homo sapiens, UniProt Q13882)
off-target kinases [4] = target: off-target kinases (Homo sapiens, UniProt Q15303); conditions: ERBB4 (HER4), ZLYTE, ATP Km app
off-target kinases [5] = target: off-target kinases (Homo sapiens, UniProt Q9BWU1); conditions: CDK11 (Inactive); Cmpd1 1000 μM; LanthaScreen Binding
off-target kinases [6] = target: T2, off-target kinases (Homo sapiens, UniProt Q9Y2U5); conditions: MAP3K2 (MEKK2), LanthaScreen Binding
T2 sequence (Q9Y2U5 1-619): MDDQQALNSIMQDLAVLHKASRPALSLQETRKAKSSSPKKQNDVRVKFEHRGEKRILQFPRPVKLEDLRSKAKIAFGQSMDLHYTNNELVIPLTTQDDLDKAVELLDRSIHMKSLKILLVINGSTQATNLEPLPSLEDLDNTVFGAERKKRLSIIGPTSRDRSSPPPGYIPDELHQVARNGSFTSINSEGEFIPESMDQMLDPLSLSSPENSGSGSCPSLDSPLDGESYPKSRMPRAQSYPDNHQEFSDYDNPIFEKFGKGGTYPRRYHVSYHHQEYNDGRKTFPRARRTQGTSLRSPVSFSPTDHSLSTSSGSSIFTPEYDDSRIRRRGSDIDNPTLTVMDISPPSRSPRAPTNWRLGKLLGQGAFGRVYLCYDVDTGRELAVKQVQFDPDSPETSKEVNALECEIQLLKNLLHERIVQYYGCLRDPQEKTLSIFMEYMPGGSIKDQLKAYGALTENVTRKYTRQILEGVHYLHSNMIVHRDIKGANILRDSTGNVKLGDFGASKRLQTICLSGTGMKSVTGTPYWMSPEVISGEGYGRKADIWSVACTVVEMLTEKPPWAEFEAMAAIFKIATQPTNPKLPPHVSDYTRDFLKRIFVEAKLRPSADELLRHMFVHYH

off-target kinases (Homo sapiens, UniProt P53671), sequence (P53671 whole entry): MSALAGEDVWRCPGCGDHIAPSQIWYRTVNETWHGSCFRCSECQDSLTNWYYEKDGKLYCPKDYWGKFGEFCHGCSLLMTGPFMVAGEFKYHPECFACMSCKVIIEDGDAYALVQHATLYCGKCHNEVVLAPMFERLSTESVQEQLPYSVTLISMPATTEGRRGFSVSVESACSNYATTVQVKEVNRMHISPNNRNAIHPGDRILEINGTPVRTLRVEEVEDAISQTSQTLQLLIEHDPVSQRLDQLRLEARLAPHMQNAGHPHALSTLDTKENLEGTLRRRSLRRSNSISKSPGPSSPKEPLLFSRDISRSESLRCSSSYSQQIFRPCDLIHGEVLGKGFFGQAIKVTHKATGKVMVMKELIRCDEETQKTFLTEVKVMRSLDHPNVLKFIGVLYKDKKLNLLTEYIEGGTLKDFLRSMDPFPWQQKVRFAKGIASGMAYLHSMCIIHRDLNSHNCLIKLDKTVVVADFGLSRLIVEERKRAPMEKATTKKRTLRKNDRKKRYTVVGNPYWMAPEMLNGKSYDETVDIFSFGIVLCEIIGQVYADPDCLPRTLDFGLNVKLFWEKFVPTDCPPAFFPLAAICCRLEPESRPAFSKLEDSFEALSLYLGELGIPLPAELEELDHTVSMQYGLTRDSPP
off-target kinases (Homo sapiens, UniProt Q9BWU1), sequence (Q9BWU1 whole entry): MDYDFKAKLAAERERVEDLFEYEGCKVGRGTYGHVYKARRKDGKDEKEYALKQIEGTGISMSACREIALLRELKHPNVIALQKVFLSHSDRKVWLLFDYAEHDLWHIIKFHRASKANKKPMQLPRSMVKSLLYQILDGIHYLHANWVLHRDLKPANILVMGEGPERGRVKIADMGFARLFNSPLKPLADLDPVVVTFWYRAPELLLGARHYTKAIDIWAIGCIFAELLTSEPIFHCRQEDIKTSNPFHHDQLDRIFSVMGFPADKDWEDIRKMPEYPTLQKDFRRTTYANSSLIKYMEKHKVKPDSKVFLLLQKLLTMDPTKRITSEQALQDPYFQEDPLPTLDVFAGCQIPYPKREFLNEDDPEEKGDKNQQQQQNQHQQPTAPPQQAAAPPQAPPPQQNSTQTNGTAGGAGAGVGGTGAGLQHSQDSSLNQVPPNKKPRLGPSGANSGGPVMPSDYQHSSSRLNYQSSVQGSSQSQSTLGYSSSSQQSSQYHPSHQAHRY
off-target kinases (Homo sapiens, UniProt Q15303), sequence (Q15303 26-1308): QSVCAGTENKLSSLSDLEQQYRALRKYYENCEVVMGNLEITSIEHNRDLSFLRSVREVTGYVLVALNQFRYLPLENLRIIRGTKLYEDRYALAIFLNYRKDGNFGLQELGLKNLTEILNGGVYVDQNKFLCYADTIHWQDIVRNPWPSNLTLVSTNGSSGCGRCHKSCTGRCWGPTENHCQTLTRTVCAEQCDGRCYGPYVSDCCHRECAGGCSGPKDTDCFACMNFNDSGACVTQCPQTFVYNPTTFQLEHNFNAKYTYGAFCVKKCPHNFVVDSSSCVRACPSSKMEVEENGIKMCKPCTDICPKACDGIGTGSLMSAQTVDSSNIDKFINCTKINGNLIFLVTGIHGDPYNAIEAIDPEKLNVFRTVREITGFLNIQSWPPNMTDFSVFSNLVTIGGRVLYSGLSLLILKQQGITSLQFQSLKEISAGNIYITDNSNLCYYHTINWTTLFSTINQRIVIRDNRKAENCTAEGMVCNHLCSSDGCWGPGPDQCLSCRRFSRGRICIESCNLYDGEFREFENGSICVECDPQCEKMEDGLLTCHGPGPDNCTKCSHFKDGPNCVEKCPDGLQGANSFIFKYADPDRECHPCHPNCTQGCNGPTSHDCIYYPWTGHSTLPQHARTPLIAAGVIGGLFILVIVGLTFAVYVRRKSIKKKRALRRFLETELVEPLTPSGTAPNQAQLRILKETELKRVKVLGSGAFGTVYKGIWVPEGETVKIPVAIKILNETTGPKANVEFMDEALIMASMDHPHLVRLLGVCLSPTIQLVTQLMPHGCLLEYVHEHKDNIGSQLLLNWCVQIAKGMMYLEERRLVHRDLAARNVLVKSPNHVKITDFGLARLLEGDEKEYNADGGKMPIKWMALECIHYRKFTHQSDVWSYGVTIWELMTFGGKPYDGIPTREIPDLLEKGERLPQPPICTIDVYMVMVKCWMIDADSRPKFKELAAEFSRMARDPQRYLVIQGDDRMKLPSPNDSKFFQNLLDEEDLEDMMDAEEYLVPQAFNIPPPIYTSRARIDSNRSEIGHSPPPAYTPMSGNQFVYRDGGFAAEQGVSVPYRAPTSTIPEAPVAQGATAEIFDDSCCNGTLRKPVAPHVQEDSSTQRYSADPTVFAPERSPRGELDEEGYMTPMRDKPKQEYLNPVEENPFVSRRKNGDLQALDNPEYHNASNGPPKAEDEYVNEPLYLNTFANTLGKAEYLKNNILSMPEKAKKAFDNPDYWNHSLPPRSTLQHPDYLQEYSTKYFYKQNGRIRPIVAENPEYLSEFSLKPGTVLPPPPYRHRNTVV
off-target kinases (Homo sapiens, UniProt Q13882), sequence (Q13882 whole entry): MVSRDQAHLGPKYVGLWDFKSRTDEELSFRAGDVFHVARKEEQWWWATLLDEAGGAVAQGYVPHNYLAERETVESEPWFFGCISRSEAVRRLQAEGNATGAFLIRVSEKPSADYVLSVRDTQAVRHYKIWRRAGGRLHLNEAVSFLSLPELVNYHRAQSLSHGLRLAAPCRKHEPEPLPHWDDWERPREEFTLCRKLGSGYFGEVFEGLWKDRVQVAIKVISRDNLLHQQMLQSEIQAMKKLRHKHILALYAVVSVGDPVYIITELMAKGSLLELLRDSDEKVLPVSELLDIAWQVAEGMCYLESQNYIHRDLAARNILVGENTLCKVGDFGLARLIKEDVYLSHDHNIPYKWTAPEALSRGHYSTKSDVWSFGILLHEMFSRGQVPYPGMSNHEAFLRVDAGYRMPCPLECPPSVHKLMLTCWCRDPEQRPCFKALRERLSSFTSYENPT

**Q.** `N#Cc1cc(-c2ncnc(Nc3ccc(N4CCN(C5COC5)CC4)cc3)n2)ccc1OC1CCOCC1` [Compound 1, 5-(4-((4-(4-(oxetan-3-yl)piperazin-1-yl)phenyl)amino)-1,3,5-triazin-2-yl)-2-((tetrahydro-2H-pyran-4-yl)oxy)benzonitrile] was tested. Which inhibition (off-target kinases [1]; read-out: % Inhibition 1) did it give?
**A.** 14%

**Q.** And the inhibition (off-target kinases [1]; read-out: % Inhibition 2)?
**A.** 19%

**Q.** What about the inhibition (off-target kinases [1]; read-out: % Inhibition Avg) of the same compound?
**A.** 17%

**Q.** And the inhibition (off-target kinases [2]; read-out: % Inhibition 1)?
**A.** 88%

**Q.** What about the inhibition (off-target kinases [2]; read-out: % Inhibition 2) of the same compound?
**A.** 93%

**Q.** And the inhibition (off-target kinases [2]; read-out: % Inhibition Avg)?
**A.** 91%

**Q.** And the inhibition (off-target kinases [3]; PTK6 (Brk), ZLYTE, ATP Km app, read-out: % Inhibition 2)?
**A.** -1%

**Q.** What about the inhibition (off-target kinases [3]; read-out: % Inhibition 1) of the same compound?
**A.** -1%

**Q.** And the inhibition (off-target kinases [3]; read-out: % Inhibition Avg)?
**A.** -1%

**Q.** And the inhibition (off-target kinases [4]; read-out: % Inhibition 1)?
**A.** 8%

**Q.** And the inhibition (off-target kinases [4]; read-out: % Inhibition 2)?
**A.** 5%

**Q.** And the inhibition (off-target kinases [4]; read-out: % Inhibition Avg)?
**A.** 6%

**Q.** And the “% Inhibition 1” value (off-target kinases [5])?
**A.** −1%

**Q.** And the “% Inhibition 2” value (off-target kinases [5])?
**A.** −7%

**Q.** And the “% Inhibition Avg” value (off-target kinases [5])?
**A.** −4%

**Q.** And the inhibition (off-target kinases [6]; read-out: % Inhibition 1)?
**A.** 11%

**Q.** What about the inhibition (off-target kinases [6]; read-out: % Inhibition 2) of the same compound?
**A.** 9%

**Q.** What about the inhibition (off-target kinases [6]; read-out: % Inhibition Avg) of the same compound?
**A.** 10%
